Reference: patent US12472272B2, “Radiolabelled compounds for diagnosis or treatment of prostate-specific membrane antigen- expressing cancer” (PROVINCIAL HEALTH SERVICES AUTHORITY, priority 2019, dated 2025)

Columns and labels:
[1] = system: PSMA-expressing LNCAP cancer xenografts; experiment: Biodistribution of ^68Ga-labeled PSMA-targeting tracers; assay type: in vivo, mice
Method: (§1) Imaging and biodistribution experiments were performed using NODSCID 1L2RγKO male mice. Mice were anesthetized by inhalation with 2% isoflurane in oxygen, and implanted subcutaneously with 1×10^7 LNCaP cells behind left shoulder. Mice were imaged or used in biodistribution studies when the tumor grew up to reach 5-8 mm in diameter during 5-6 weeks.
(§2) PET imaging experiments were conducted using Siemens Inveon micro PET/CT scanner. Each tumor bearing mouse was injected 6-8 MBq of Ga-68 labeled tracer through the tail vein under anesthesia (2% isoflurane in oxygen). The mice were allowed to recover and roam freely in their cage. After 50 min, the mice were sedated again with 2% isoflurane in oxygen inhalation and positioned in the scanner. A 10-min CT scan was conducted first for localization and attenuation correction after segmentation for reconstructing the PET images. Then, a 10-min static PET imaging was performed to determined uptake in tumor and other organs. The mice were kept warm by a heating pad during acquisition. For imaging studies acquired at 3 h post-injection (p.i.), the mice were placed in the micro PET/CT scanner at 170 min p.i. Then, the CT acquisitions were conducted as described above, a 15-min static PET imaging was performed to determined uptake in tumor and other organs.
For biodistribution studies, the mice were injected with the radiotracer as described above. At predetermined time points (1 or 3 h for ^68Ga studies; 1, 4, 24, 72, or 120 h for ^177Lu studies), the mice was anesthetized with 2% isoflurane inhalation, and euthanized by CO2 inhalation. Blood was withdrawn immediately from the heart, and the organs/tissues of interest were collected. The collected organs/tissues were weighed and counted using a Perkin Elmer (Waltham, MA) Wizard2 2480 gamma counter. The uptake in each organ/tissue was normalized to the injected dose using a standard curve, and expressed as the percentage of the injected dose per gram of tissue (% ID/g).

[2] = system: LNCaP tumors; experiment: PET/CT imaging of ^68Ga-labeled tracers; assay type: in vivo, mice; settings: FIG. 3
Method: as §1, §2

## CCCCCC[C@H](NC(=O)[C@H]1CC[C@H](CNC(=O)CN2CCN(CC(=O)[O-])CCN(CC(=O)[O-])CCN(CC(=O)[O-])CC2)CC1)C(=O)NCCCC[C@H](NC(=O)N[C@@H](CCC(=O)O)C(=O)O)C(=O)O.[68Ga+3] [^68Ga-HTK03026]
[1]; 1 h post-injection
  Tissue (% ID/g): Adrenal glands: 1.84 ± 0.95 % ID/g
  Tissue (% ID/g): Blood: 0.70 ± 0.19 % ID/g
  Tissue (% ID/g): Bone: 0.54 ± 0.20 % ID/g
  Tissue (% ID/g): Brain: 0.06 ± 0.02 % ID/g
  Tissue (% ID/g): Fat: 0.45 ± 0.11 % ID/g
  Tissue (% ID/g): Heart: 0.30 ± 0.06 % ID/g
  Tissue (% ID/g): Intestine: 0.29 ± 0.06 % ID/g
  Tissue (% ID/g): Kidneys: 68.5 ± 28.2 % ID/g
  Tissue (% ID/g): Lacrimal: 1.33 ± 0.90 % ID/g
  Tissue (% ID/g): Liver: 0.24 ± 0.06 % ID/g
  Tissue (% ID/g): Lungs: 0.82 ± 0.26 % ID/g
  Tissue (% ID/g): Muscle: 0.28 ± 0.13 % ID/g
  Tissue (% ID/g): Pancreas: 0.71 ± 1.04 % ID/g
  Tissue (% ID/g): Salivary: 0.83 ± 0.22 % ID/g
  Tissue (% ID/g): Seminal: 0.43 ± 0.31 % ID/g
  Tissue (% ID/g): Spleen: 1.34 ± 0.54 % ID/g
  Tissue (% ID/g): Stomach: 0.10 ± 0.03 % ID/g
  Tissue (% ID/g): Tail: 0.90 ± 0.56 % ID/g
  Tissue (% ID/g): Testes: 0.35 ± 0.22 % ID/g
  Tissue (% ID/g): Thyroid: 0.35 ± 0.08 % ID/g
  Tissue (% ID/g): Tumor: 12.5 ± 2.90 % ID/g
  Tissue (% ID/g): Urine: 575 ± 245 % ID/g
  tumor-to-background contrast ratio Tumor: Blood: 18.6 ± 5.54
  tumor-to-background contrast ratio Tumor: Muscle: 52.8 ± 24.9
  tumor-to-background contrast ratio Tumor: kidney: 0.22 ± 0.15
[1]; 1 h post-injection, listed as 68Ga-labeled HTK03026
  Tissue (% ID/g): Tumor: ~13 % ID/g
[2]
  uptake in PET/CT images: higher uptake was observed in LNCap tumor xenografts, kidneys and urinary bladders

## O=C([O-])CN1CCN(CC(=O)[O-])CCN(CC(=O)NC[C@H]2CC[C@H](C(=O)N[C@@H](Cc3ccc4cc5ccccc5cc4c3)C(=O)NCCCC[C@H](NC(=O)N[C@@H](CCC(=O)O)C(=O)O)C(=O)O)CC2)CCN(CC(=O)[O-])CC1.[68Ga+3] [^68Ga-HTK03027]
[1]; 1 h post-injection
  Tissue (% ID/g): Adrenal glands: 3.55 ± 2.33 % ID/g
  Tissue (% ID/g): Blood: 1.56 ± 0.57 % ID/g
  Tissue (% ID/g): Bone: 0.70 ± 0.33 % ID/g
  Tissue (% ID/g): Brain: 0.06 ± 0.03 % ID/g
  Tissue (% ID/g): Fat: 1.03 ± 0.67 % ID/g
  Tissue (% ID/g): Heart: 0.56 ± 0.24 % ID/g
  Tissue (% ID/g): Intestine: 0.44 ± 0.12 % ID/g
  Tissue (% ID/g): Kidneys: 85.6 ± 73.5 % ID/g
  Tissue (% ID/g): Lacrimal: 1.00 ± 0.56 % ID/g
  Tissue (% ID/g): Liver: 0.46 ± 0.10 % ID/g
  Tissue (% ID/g): Lungs: 1.66 ± 0.67 % ID/g
  Tissue (% ID/g): Muscle: 0.48 ± 0.37 % ID/g
  Tissue (% ID/g): Pancreas: 0.57 ± 0.20 % ID/g
  Tissue (% ID/g): Salivary: 1.86 ± 0.91 % ID/g
  Tissue (% ID/g): Seminal: 10.6 ± 10.9 % ID/g
  Tissue (% ID/g): Spleen: 3.36 ± 2.54 % ID/g
  Tissue (% ID/g): Stomach: 0.17 ± 0.10 % ID/g
  Tissue (% ID/g): Tail: 0.98 ± 0.38 % ID/g
  Tissue (% ID/g): Testes: 0.56 ± 0.18 % ID/g
  Tissue (% ID/g): Thyroid: 0.76 ± 0.33 % ID/g
  Tissue (% ID/g): Tumor: 13.3 ± 5.44 % ID/g
  Tissue (% ID/g): Urine: 844 ± 645 % ID/g
  tumor-to-background contrast ratio Tumor: Blood: 8.57 ± 2.83
  tumor-to-background contrast ratio Tumor: Muscle: 35.0 ± 18.7
  tumor-to-background contrast ratio Tumor: kidney: 0.27 ± 0.20
[1]; 1 h post-injection, listed as 68Ga-labeled HTK03027
  Tissue (% ID/g): Tumor: ~13 % ID/g
[2]
  uptake in PET/CT images: higher uptake was observed in LNCap tumor xenografts, kidneys and urinary bladders

## O=C([O-])CN1CCN(CC(=O)[O-])CCN(CC(=O)NC[C@H]2CC[C@H](C(=O)N[C@@H](Cc3c4ccccc4cc4ccccc34)C(=O)NCCCC[C@H](NC(=O)N[C@@H](CCC(=O)O)C(=O)O)C(=O)O)CC2)CCN(CC(=O)[O-])CC1.[68Ga+3] [^68Ga-HTK03041]
[1]; 1 h post-injection
  Tissue (% ID/g): Adrenal glands: 8.90 ± 2.56 % ID/g
  Tissue (% ID/g): Blood: 1.43 ± 0.30 % ID/g
  Tissue (% ID/g): Bone: 1.29 ± 0.45 % ID/g
  Tissue (% ID/g): Brain: 0.10 ± 0.05 % ID/g
  Tissue (% ID/g): Fat: 2.06 ± 0.59 % ID/g
  Tissue (% ID/g): Heart: 1.82 ± 0.21 % ID/g
  Tissue (% ID/g): Intestine: 1.14 ± 0.18 % ID/g
  Tissue (% ID/g): Kidneys: 170 ± 26.4 % ID/g
  Tissue (% ID/g): Lacrimal: 2.44 ± 1.79 % ID/g
  Tissue (% ID/g): Liver: 1.38 ± 0.25 % ID/g
  Tissue (% ID/g): Lungs: 4.32 ± 0.62 % ID/g
  Tissue (% ID/g): Muscle: 0.75 ± 0.09 % ID/g
  Tissue (% ID/g): Pancreas: 1.47 ± 0.16 % ID/g
  Tissue (% ID/g): Salivary: 4.99 ± 0.88 % ID/g
  Tissue (% ID/g): Seminal: 1.03 ± 0.27 % ID/g
  Tissue (% ID/g): Spleen: 8.95 ± 3.22 % ID/g
  Tissue (% ID/g): Stomach: 0.41 ± 0.11 % ID/g
  Tissue (% ID/g): Tail: 1.36 ± 0.45 % ID/g
  Tissue (% ID/g): Testes: 1.34 ± 0.22 % ID/g
  Tissue (% ID/g): Thyroid: 2.48 ± 0.44 % ID/g
  Tissue (% ID/g): Tumor: 23.1±6.11 % ID/g
  Tissue (% ID/g): Urine: 173 ± 93.01 % ID/g
  tumor-to-background contrast ratio Tumor: Blood: 17.3 ± 7.24
  tumor-to-background contrast ratio Tumor: Muscle: 31.6 ± 12.1
  tumor-to-background contrast ratio Tumor: kidney: 0.14 ± 0.04
[1]; 3 h post-injection
  Tissue (% ID/g): Adrenal glands: 4.04 ± 1.20 % ID/g
  Tissue (% ID/g): Blood: 0.83 ± 0.27 % ID/g
  Tissue (% ID/g): Bone: 0.98 ± 0.40 % ID/g
  Tissue (% ID/g): Brain: 0.06 ± 0.02 % ID/g
  Tissue (% ID/g): Fat: 1.06 ± 0.20 % ID/g
  Tissue (% ID/g): Heart: 0.93 ± 0.17 % ID/g
  Tissue (% ID/g): Intestine: 0.67 ± 0.09 % ID/g
  Tissue (% ID/g): Kidneys: 121 ± 37.6 % ID/g
  Tissue (% ID/g): Lacrimal: 2.82 ± 3.84 % ID/g
  Tissue (% ID/g): Liver: 0.82 ± 0.15 % ID/g
  Tissue (% ID/g): Lungs: 2.14 ± 0.39 % ID/g
  Tissue (% ID/g): Muscle: 0.40 ± 0.06 % ID/g
  Tissue (% ID/g): Pancreas: 0.71 ± 0.12 % ID/g
  Tissue (% ID/g): Salivary: 2.11 ± 0.57 % ID/g
  Tissue (% ID/g): Seminal: 4.56 ± 9.00 % ID/g
  Tissue (% ID/g): Spleen: 4.19 ± 1.58 % ID/g
  Tissue (% ID/g): Stomach: 0.26 ± 0.06 % ID/g
  Tissue (% ID/g): Tail: 0.86 ± 0.73 % ID/g
  Tissue (% ID/g): Testes: 0.89 ± 0.12 % ID/g
  Tissue (% ID/g): Thyroid: 1.19 ± 0.23 % ID/g
  Tissue (% ID/g): Tumor: 28.2±9.17 % ID/g
  Tissue (% ID/g): Urine: 171 ± 93.3 % ID/g
  tumor-to-background contrast ratio Tumor: Blood: 36.6 ± 15.4
  tumor-to-background contrast ratio Tumor: Muscle: 73.8 ± 30.9
  tumor-to-background contrast ratio Tumor: kidney: 0.26 ± 0.13
[2]
  uptake in PET/CT images: higher uptake was observed in LNCap tumor xenografts, kidneys and urinary bladders
